# Counter-ions that a name gives are not always drawn.
# Tested on: Human mast cells (CHMC)
# Assay: LD Tryptase release assay in CHMC (mast cell activation induced by FcγR cross-linking)
# Assay type: cell-based
# Conditions: Homo sapiens, Mast cell, anti-IgG stimulation, activity of tryptase released upon degranulation
# How it was run: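 Mast cells derived from CD38-negative progenitors were preincubated 1 h at 37 °C with compound in HEPES-buffered saline (pH 7.4, 0.1% BSA, compound diluted in buffer with 2% MeOH/1% DMSO). Cells were then stimulated 60 min with anti-human IgG (final 1 μg/mL). Released tryptase was measured on Z-Ala-Lys-Arg-AMC (30 min, room temperature, 355/460 nm) to give the IC50.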
row,IC50 [µM],SMILES
1,1 to 100,"C=C1COCCN1c1ccc(Nc2ncc(F)c(Nc3ccc4c(n3)NC(=O)C(C)(C)O4)n2)cn1 [Compound 58, N4-(2,2-dimethyl-3,4-dihydro-3-oxo-2H-pyrido[3,2-b][1,4]oxazin-6-yl)-5-fluoro-N2-[6-(3-methylenemorpholino)pyridin-3-yl]-2,4-pyrimidinediamine]"
2,0.1 to 0.5,"C[C@H]1COCCN1c1ccc(Nc2ncc(F)c(Nc3ccc4c(n3)NC(=O)C(C)(C)O4)n2)cn1 [Compound 138, N4-(2,2-dimethyl-3,4-dihydro-3-oxo-2H-pyrido[3,2-b][1,4]oxazin-6-yl)-5-fluoro-N2-[6-((3S)-3-methylmorpholino)pyridin-3-yl]-2,4-pyrimidinediamine]"
3,0.1 to 0.5,"CC1(C)Oc2ccc(Nc3nc(Nc4ccc(N5CCC6(CC5)COC6)cc4)ncc3F)nc2NC1=O [Compound 158, N4-(2,2-dimethyl-3,4-dihydro-3-oxo-2H-pyrido[3,2-b][1,4]oxazin-6-yl)-5-fluoro-N2-[4-(2-oxa-7-azaspiro[3.5]nonan-7-yl)phenyl]-2,4-pyrimidinediamine]"
4,> 100,"CC1(C)Oc2ccc(Nc3nc(Nc4ccc(N5CCOCC5)c(OC(F)(F)F)c4)ncc3F)nc2NC1=O [Compound 28, N4-(2,2-dimethyl-3,4-dihydro-3-oxo-2H-pyrido[3,2-b][1,4]oxazin-6-yl)-5-fluoro-N2-[3-trifluoromethoxy-4-morpholinophenyl]-2,4-pyrimidinediamine]"
5,0.1 to 0.5,"CC1(C)Oc2ccc(Nc3nc(Nc4ccc(N5CCC(N6CCOCC6)CC5)cc4)ncc3F)nc2NC1=O [Compound 87, N4-(2,2-dimethyl-3,4-dihydro-3-oxo-2H-pyrido[3,2-b][1,4]oxazin-6-yl)-5-fluoro-N2-[4-(4-morpholinopiperidin-1-yl)phenyl]-2,4-pyrimidinediamine]"
6,< 0.1,"COc1cc(Nc2ncc(F)c(Nc3ccc4c(n3)NC(=O)CO4)n2)ccc1N1CCOCC1 [Compound 33, N4-(3,4-dihydro-3-oxo-2H-pyrido[3,2-b][1,4]oxazin-6-yl)-5-fluoro-N2-[3-methoxy-4-morpholinophenyl]-2,4-pyrimidinediamine]"
7,< 0.1,"CC1(C)Oc2ccc(Nc3nc(Nc4ccc(N5CCC(O)CC5)cc4)ncc3F)nc2NC1=O [Compound 77, N4-(2,2-dimethyl-3,4-dihydro-3-oxo-2H-pyrido[3,2-b][1,4]oxazin-6-yl)-5-fluoro-N2-[4-(4-hydroxypiperidin-1-yl)phenyl]-2,4-pyrimidinediamine]"
8,< 0.1,"Cc1cc(Nc2ncc(F)c(Nc3ccc4c(n3)NC(=O)C(C)(C)O4)n2)ccc1N1CCOCC1 [Compound 23, N4-(2,2-dimethyl-3,4-dihydro-3-oxo-2H-pyrido[3,2-b][1,4]oxazin-6-yl)-5-fluoro-N2-[3-methyl-4-morpholinophenyl]-2,4-pyrimidinediamine]"
9,< 0.1,"Cc1cc(Nc2ncc(F)c(Nc3ccc4c(n3)NC(=O)C(C)(C)O4)n2)ccc1N1C[C@@H]2C[C@H]1CO2 [Compound 24, N4-(2,2-dimethyl-3,4-dihydro-3-oxo-2H-pyrido[3,2-b][1,4]oxazin-6-yl)-5-fluoro-N2-[3-methyl-4-((1S,4S)-5-oxa-2-aza-bicyclo[2.2.1]heptan-2-yl)phenyl]-2,4-pyrimidinediamine]"
10,< 0.1,"C[C@@H]1CN(c2ccc(Nc3ncc(F)c(Nc4ccc5c(n4)NC(=O)C(C)(C)O5)n3)cc2)CCO1 [Compound 118, N4-(2,2-dimethyl-3,4-dihydro-3-oxo-2H-pyrido[3,2-b][1,4]oxazin-6-yl)-5-fluoro-N2-[4-((2R)-2-methylmorpholino)phenyl]-2,4-pyrimidinediamine]"

# Continued, molecule first:
row,SMILES,IC50 [µM]
1,O=C1COc2ccc(Nc3nc(Nc4ccc(N5CCOCC5=O)cc4)ncc3F)nc2N1 [Compound 39],0.1 to 0.5
2,"CCOC[C@@H]1CN(c2ccc(Nc3ncc(F)c(Nc4ccc5c(n4)NC(=O)C(C)(C)O5)n3)cn2)CCO1 [Compound 101, N4-(2,2-dimethyl-3,4-dihydro-3-oxo-2H-pyrido[3,2-b][1,4]oxazin-6-yl)-N2-[6-(((2S)-2-ethoxymethyl)morpholino)pyridin-3-yl]-5-fluoro-2,4-pyrimidinediamine]",0.1 to 0.5
3,"CC1(C)Oc2ccc(Nc3nc(Nc4ccc(N5CC[C@H](CO)C5)nc4)ncc3F)nc2NC1=O [Compound 71, N4-(2,2-dimethyl-3,4-dihydro-3-oxo-2H-pyrido[3,2-b][1,4]oxazin-6-yl)-5-fluoro-N2-[6-((3S)-3-(hydroxymethyl)pyrrolidin-1-yl)pyridin-3-yl]-2,4-pyrimidinediamine]",0.1 to 0.5
4,"CC1(C)CN(c2ncc(Nc3ncc(F)c(Nc4ccc5c(n4)NC(=O)CO5)n3)cc2F)CCO1 [Compound 17, N4-(3,4-dihydro-3-oxo-2H-pyrido[3,2-b][1,4]oxazin-6-yl)-5-fluoro-N2-[5-fluoro-6-(2,2-dimethylmorpholino)pyridin-3-yl]-2,4-pyrimidinediamine]",0.1 to 0.5
5,"CN1CCN(c2ccc(Nc3ncc(F)c(Nc4ccc5c(n4)NC(=O)C(C)(C)O5)n3)cn2)CC1 [Compound 18, N4-(2,2-dimethyl-3,4-dihydro-3-oxo-2H-pyrido[3,2-b][1,4]oxazin-6-yl)-5-fluoro-N2-[6-(4-methylpiperazin-1-yl)pyridin-3-yl]-2,4-pyrimidinediamine]",0.5 to 1
6,"O=C1COc2ccc(Nc3nc(Nc4ccc(N5CCOCC5)nc4)ncc3F)nc2N1 [Compound 5, N4-(3,4-dihydro-3-oxo-2H-pyrido[3,2-b][1,4]oxazin-6-yl)-5-fluoro-N2-[6-morpholinopyridin-3-yl]-2,4-pyrimidinediamine]",0.1 to 0.5
7,"CC1(C)Oc2ccc(Nc3nc(Nc4ccc(N5CCNC(=O)C5)cc4)ncc3F)nc2NC1=O [Compound 151, N4-(2,2-dimethyl-3,4-dihydro-3-oxo-2H-pyrido[3,2-b][1,4]oxazin-6-yl)-5-fluoro-N2-[4-(3-oxopiperazin-1-yl)phenyl]-2,4-pyrimidinediamine]",0.1 to 0.5
8,CC1(C)Oc2ccc(Nc3nc(Nc4ccc(NC5CCOCC5)nc4)ncc3F)nc2NC1=O [Compound 134],< 0.1
9,"CC1(C)Oc2ccc(Nc3nc(Nc4ccc5ccncc5c4)ncc3F)nc2NC1=O [Compound 133, N4-(2,2-dimethyl-3,4-dihydro-3-oxo-2H-pyrido[3,2-b][1,4]oxazin-6-yl)-5-fluoro-N2-(isoquinolin-7-yl)-2,4-pyrimidinediamine]",< 0.1
10,"CC1(C)Oc2ccc(Nc3nc(Nc4ccc(N5C[C@@H]6C[C@H]5CO6)cc4)ncc3F)nc2NC1=O [Compound 38, N4-(2,2-dimethyl-3,4-dihydro-3-oxo-2H-pyrido[3,2-b][1,4]oxazin-6-yl)-5-fluoro-N2-[4-((1S,4S)-5-oxa-2-aza-bicyclo[2.2.1]heptan-2-yl)phenyl]-2,4-pyrimidinediamine]",< 0.1
11,"COCC1CCN(c2ccc(Nc3ncc(F)c(Nc4ccc5c(n4)NC(=O)C(C)(C)O5)n3)cc2)CC1 [Compound 155, N4-(2,2-dimethyl-3,4-dihydro-3-oxo-2H-pyrido[3,2-b][1,4]oxazin-6-yl)-5-fluoro-N2-[4-(4-(methoxymethyl)piperidin-1-yl)phenyl]-2,4-pyrimidinediamine]",0.1 to 0.5
12,"C[C@@H]1CN(c2ccc(Nc3ncc(F)c(Nc4ccc5c(n4)NC(=O)C(C)(C)O5)n3)cc2)C[C@H](C)O1 [Compound 36, rac-Cis-N4-(2,2-dimethyl-3,4-dihydro-3-oxo-2H-pyrido[3,2-b][1,4]oxazin-6-yl)-5-fluoro-N2-[4-(2,6-dimethylmorpholino)phenyl]-2,4-pyrimidinediamine]",0.1 to 0.5
13,"CC1(C)Oc2ccc(Nc3nc(Nc4ccc(N5CCN6CCC5CC6)nc4)ncc3F)nc2NC1=O [Compound 62, N4-(2,2-dimethyl-3,4-dihydro-3-oxo-2H-pyrido[3,2-b][1,4]oxazin-6-yl)-5-fluoro-N2-[6-(1,4-diazabicyclo[3.2.2]nonan-4-yl)pyridin-3-yl]-2,4-pyrimidinediamine]",0.5 to 1
14,"O=C1COc2ccc(Nc3nc(Nc4ccc(N5CCO[C@H](CCO)C5)cc4)ncc3F)nc2N1 (stereo in doubt) [Compound 125, N4-(3,4-dihydro-3-oxo-2H-pyrido[3,2-b][1,4]oxazin-6-yl)-5-fluoro-N2-[4-((2-hydroxyethyl)morpholino)phenyl]-2,4-pyrimidinediamine]",< 0.1
15,"CC1(C)CN(c2ccc(Nc3ncc(F)c(Nc4ccc5c(n4)NC(=O)C4(CCC4)O5)n3)cc2)CCO1 [Compound 124, N2-[4-(2,2-Dimethylmorpholino)phenyl]-5-fluoro-N4-(3′-oxo-3′,4′-dihydrospiro[cyclobutane-1,2′-pyrido[3,2-b][1,4]oxazine]-6-yl)-2,4-pyrimidinediamine]",1 to 100

# Same assay, conditions: anti-IgG stimulation, activity of tryptase released upon degranulation
row,SMILES,IC50 [µM]
1,"CC1(C)Oc2ccc(Nc3nc(Nc4ccc(N5CCOCC5)nc4)ncc3F)nc2NC1=O [Compound 139, N4-(2,2-dimethyl-3,4-dihydro-3-oxo-2H-pyrido[3,2-b][1,4]oxazin-6-yl)-5-fluoro-N2-[6-morpholinopyridin-3-yl]-2,4-pyrimidinediamine p-toluenesulfonic acid salt]",0.5 to 1
2,"Cc1cc(Nc2ncc(F)c(Nc3ccc4c(n3)N(COP(=O)(O)O)C(=O)C(C)(C)O4)n2)ccc1N1CCOCC1 [Compound 112, N4-(2,2-dimethyl-3,4-dihydro-4-[(dihydrogenphosphonoxy)methyl]-3-oxo-2H-pyrido[3,2-b][1,4]oxazin-6-yl)-5-fluoro-N2-(3-methyl-4-morpholinophenyl)-2,4-pyrimidinediamine disodium salt]",0.5 to 1
3,"CC1(C)Oc2ccc(Nc3nc(Nc4ccc(N5CCOCC5)nc4)ncc3F)nc2N(COP(=O)(O)O)C1=O [Compound 4, N4-(2,2-dimethyl-3,4-dihydro-4-[(dihydrogenphosphonoxy)methyl]-3-oxo-2H-pyrido[3,2-b][1,4]oxazin-6-yl)-5-fluoro-N2-(6-morpholinopyridin-3-yl)-2,4-pyrimidinediamine disodium salt]",1 to 100
